In US20110301199A1, “COMPOSITIONS AND METHODS FOR TREATING MYELODYSPLASTIC SYNDROME” (Telik, Inc., priority 2010, published 2011):

Experiments:
[1] = system: Low to Intermediate-1 Risk Myelodysplastic Syndrome; assay: Clinical study of ezatiostat hydrochloride tablets in IPSS low to intermediate-1 risk MDS patients: hematologic improvement and efficacy; type: in vivo, human; details: for significant RBC transfusion reduction: five of 11 patients; for HI-E Response Rate (95% Confidence Interval): prior DMTI Yes, N 15
Protocol: Subsequently, 37 patients were treated at 3 grams daily for two weeks followed by a one week rest period, and 36 patients were treated at 2 grams daily for three weeks followed by a one week rest period.
The median age was 72 years, with a patient population distribution of IPSS low risk (23 patients, 32%) and intermediate-1 risk (50 patients, 68%).

[2] = system: Low to Intermediate-1 Risk Myelodysplastic Syndrome; assay: Clinical study of ezatiostat hydrochloride tablets in MDS patients: adverse events (safety); type: in vivo, human
Protocol: Eighty-seven patients were randomized and treated at 23 investigational sites. After initial dose ranging in 14 patients, two dose levels were selected for further study. Subsequently, 37 patients were treated at 3 grams daily for two weeks followed by a one week rest period, and 36 patients were treated at 2 grams daily for three weeks followed by a one week rest period. The data on these 73 patients was pooled for this preliminary analysis.
The safety data is based on all patients treated.

[3] = 1 g b.i.d. 3 weeks on & 1 week off (N = 31)
[4] = 1 g b.i.d. 3 weeks on & 1 week off, 6 responders
[5] = 1.5 g b.i.d. 2 weeks on & 1 week off (N = 29)
[6] = 1.5 g b.i.d. 2 weeks on & 1 week off, 7 responders

With `CCOC(=O)[C@@H](N)CCC(=O)N[C@@H](CSCc1ccccc1)C(=O)N[C@@H](C(=O)OCC)c1ccccc1` [Telintra, ethyl (2S)-2-amino-5-[[(2R)-3-benzylsulfanyl-1-[[(1R)-2-ethoxy-2-oxo-1-phenylethyl]amino]-1-oxopropan-2-yl]amino]-5-oxopentanoate] the “Duration of HI-E Response, Median (95% CI)” value ([1]; 1 g b.i.d. 3 weeks on & 1 week off) was 46.1 (10.0-46.1) Weeks, the “Time to HI-E Response, Max” value [1, 3] was 11.3 Weeks and the “Time to HI-E Response, Mean” value [1, 3] was 8.9 (1.29) ^ Weeks. The “Time to HI-E Response, Min” value [1, 3] was 8.0 Weeks, the “Duration of HI-E Response, # Censored” value [1, 4] was 4 (66.7%) and the “Duration of HI-E Response, # Event” value [1, 4] was 2 (33.3%). The “Duration of HI-E Response, Median (95% CI)” value ([1]; 1.5 g b.i.d. 2 weeks on & 1 week off) was 18.4 (3.1-51.0) Weeks, the “Time to HI-E Response, Max” value [1, 5] was 10.0 Weeks and the “Time to HI-E Response, Mean” value [1, 5] was 8.4 (0.72) ^ Weeks. For the same molecule, the “Time to HI-E Response, Min” value [1, 5] was 8.0 Weeks, the “Duration of HI-E Response, # Censored” value [1, 6] was 2 (28.6%) and the “Duration of HI-E Response, # Event” value [1, 6] was 5 (71.4%). For the same molecule, the RBC transfusion independence ([1]; 4 of 38 RBC transfusion-dependent patients) was 11%, the “clinically significant RBC transfusion reductions (reduction of 4 U/8 weeks, IWG 2006)” value ([1]; 11 of 38 RBC transfusion-dependent patients) was 29% and the “effect of prior Revlimid treatment on HI-E response” value ([1]; logistic regression analysis) was “enhance”. The “decrease in the odds for a HI-E response predicted by prior DMTI treatment” value ([1]; logistic regression analysis, p=0.023) was “five-fold”, the “significant RBC transfusion reduction” value ([1]; no prior Revlimid, no prior DMTI) was 45% and the “complete remission continued following discontinuation of therapy” value ([1]; one patient) was “more than 12 months”. The “HI-E Response Rate (95% Confidence Interval)” value ([1]; prior Revlimid No) was 0.0% (0.0%-21.8%), the “HI-E Response Rate (95% Confidence Interval)” value ([1]; prior Revlimid Yes, listed as ezatiostat hydrochloride) was “about 20%” and the “significant RBC transfusion reduction” value ([1]; prior Revlimid, no prior DMTI) was 45%. The transfusion independence ([1]; prior Revlimid, no prior DMTI, three of 11 patients) was 27%, the “diarrhea, Grade 1 adverse event” value ([2]; all patients treated) was 25% and the “diarrhea, Grade 2 adverse event” value ([2]; all patients treated) was 7%. The “diarrhea, Grade 3 adverse event” value ([2]; all patients treated) was 3%, the “nausea, Grade 1 adverse event” value ([2]; all patients treated) was 45% and the “nausea, Grade 2 adverse event” value ([2]; all patients treated) was 16%. For the same molecule, the “nausea, Grade 3 adverse event” value ([2]; all patients treated) was 1%, the “vomiting, Grade 1 adverse event” value ([2]; all patients treated) was 30% and the “vomiting, Grade 2 adverse event” value ([2]; all patients treated) was 12%. For the same molecule, the “vomiting, Grade 3 adverse event” value ([2]; all patients treated) was 2% and the “incidence of GI AEs with prior DMTI treatment” value ([2]; patients with prior DMTI treatment) was “increased incidence”.
